pKi: −log10 of the molar value.
target: L-lactate dehydrogenase B chain (Homo sapiens, UniProt P07195)
Sequence (P07195 whole entry): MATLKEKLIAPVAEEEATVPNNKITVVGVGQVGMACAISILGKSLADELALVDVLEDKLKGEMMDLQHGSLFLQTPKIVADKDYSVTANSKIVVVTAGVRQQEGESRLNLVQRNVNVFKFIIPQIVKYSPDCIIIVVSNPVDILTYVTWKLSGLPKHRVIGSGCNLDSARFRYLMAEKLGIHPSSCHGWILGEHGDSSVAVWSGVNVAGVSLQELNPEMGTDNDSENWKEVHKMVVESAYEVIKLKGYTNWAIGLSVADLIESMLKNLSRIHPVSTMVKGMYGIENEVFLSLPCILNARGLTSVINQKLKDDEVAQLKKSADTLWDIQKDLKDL
Description: inhibitory activity against Human Lactate Dehydrogenase (LDH-H)

SMILES | pKi
CCCc1c(O)c(O)c(C(=O)O)c2cc(Cc3ccccc3)c(C)cc12 | 6.00
CCCc1c(O)c(O)c(C(=O)O)c2ccc(C)cc12 | 4.31
Cc1cc2c(C(C)C)c(O)c(O)c(C(=O)O)c2cc1Cc1ccccc1 | 5.15

Source: ChEMBL document CHEMBL1131124, “Selective inhibitors of human lactate dehydrogenases and lactate dehydrogenase from the malarial parasite Plasmodium falciparum” (J Med Chem, 1998)
